28 compounds from patent US20220135591A1, “HETEROCYCLIC COMPOUNDS AS INHIBITORS OF MONOACYLGLYCEROL LIPASE (MAGL)” (Hoffmann-La Roche Inc., priority 2019, published 2022) can be followed below.

pIC50: −log10 of the molar value.

The target of this experiment is T1, MAGL (recombinant wild-type) (Homo sapiens, UniProt Q99685).
T1 sequence (Q99685 1-303): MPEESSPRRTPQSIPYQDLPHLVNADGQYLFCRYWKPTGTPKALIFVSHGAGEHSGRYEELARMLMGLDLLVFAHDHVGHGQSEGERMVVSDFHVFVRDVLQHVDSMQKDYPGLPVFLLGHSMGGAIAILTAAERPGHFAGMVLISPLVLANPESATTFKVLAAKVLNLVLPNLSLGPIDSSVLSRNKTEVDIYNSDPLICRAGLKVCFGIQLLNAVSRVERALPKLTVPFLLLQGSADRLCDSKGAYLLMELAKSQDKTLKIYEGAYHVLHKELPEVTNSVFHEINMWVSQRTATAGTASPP
Description: 4-NPA assay: MAGL inhibitory activity by hydrolysis of 4-nitrophenylacetate, absorbance at 405 nm. Type of experiment: biochemical. As to conditions: 4-NPA assay (values without footnote [b]). The method, boiled down:
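Final assay: 1 nM MAGL and 300 μM 4-nitrophenylacetate in 50 mM Tris, 1 mM EDTA, at RT. Compounds (25 μM–1.7 nM, 3-fold steps) were preincubated 15 min with enzyme. A405 was read 5 min after substrate addition and again after 80 min; activity was taken as the difference between reads.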
Consider `Cc1ccc2oc(N3CCN(C(=O)c4ccc(C5(F)CC5)cc4)CC3)nc2n1` [Example 68, (4-(1-fluorocyclopropyl)phenyl)(4-(5-methyloxazolo[4,5-b]pyridin-2-yl)piperazin-1-yl)methanone], for which the pIC50 is 5.38.
Consider `CC1(COc2ccc(C(=O)N3CCN(c4nc5nc(Cl)ccc5o4)CC3)cc2F)CC1` [Example 69, [4-(5-chlorooxazolo[4,5-b]pyridin-2-yl)piperazin-1-yl]-[3-fluoro-4-[(1-methylcyclopropyl)methoxy]phenyl]methanone], for which the pIC50 is 6.97.
As to `Cc1ccc2oc(N3CCN(C(=O)c4ccc(-n5cnc(C(C)(C)C)n5)cc4)CC3)nc2n1` [Example 70, [4-(3-tert-butyl-1,2,4-triazol-1-yl)phenyl]-[4-(5-methyloxazolo[4,5-b]pyridin-2-yl)piperazin-1-yl]methanone], the pIC50 was 7.37.
Regarding `Cc1ccc2oc(N3CCN(C(=O)c4ccc(OCC5(C)CC5)c(F)c4)CC3)nc2n1` [Example 71, [3-fluoro-4-[(1-methylcyclopropyl)methoxy]phenyl]-[4-(5-methyloxazolo[4,5-b]pyridin-2-yl)piperazin-1-yl]methanone], the pIC50 is 6.42.
As for `CC(C)(C)c1ncn(-c2ccc(C(=O)N3CCN(c4nc5nc(Cl)ccc5o4)CC3)cc2)n1` [Example 72, [4-(3-tert-butyl-1,2,4-triazol-1-yl)phenyl]-[4-(5-chlorooxazolo[4,5-b]pyridin-2-yl)piperazin-1-yl]methanone], the pIC50 was 7.57.
`Cn1c(CC(C)(C)C)nnc1-c1ccc(C(=O)N2CCN(c3nc4nc(Cl)ccc4o3)CC2)cc1` [Example 73, [4-(5-chlorooxazolo[4,5-b]pyridin-2-yl)piperazin--yl]-[4-[5-(2,2-dimethylpropyl)-4-methyl-1,2,4-triazol-3-yl]phenyl]methanone]: the pIC50 was 6.39.
Take `Cc1ccc2oc(N3CCN(C(=O)c4cnc(OCC5(C)CC5)c(C)c4)CC3)nc2n1` [Example 142, (5-methyl-6-((1-methylcyclopropyl)methoxy)pyridin-3-yl)(4-(5-methyloxazolo[4,5-b]pyridin-2-yl)piperazin-1-yl)methanone]: the pIC50 is 6.97.
The figure for `Cc1ccc2oc(N3CCN(C(=O)c4cnc(OCC5(C(F)(F)F)CC5)c(C)c4)CC3)nc2n1` [Example 143, (5-methyl-6-((1-(trifluoromethyl)cyclopropyl)methoxy)pyridin-3-yl)(4-(5-methyloxazolo[4,5-b]pyridin-2-yl)piperazin-1-yl)methanone] is 7.11.
The figure for `O=C(c1cnc(OCC2(C(F)(F)F)CC2)c(F)c1)N1CCN(c2nc3nc(Cl)ccc3o2)CC1` [Example 144, (4-(5-chlorooxazolo[4,5-b]pyridin-2-yl)piperazin-1-yl)(5-fluoro-6-((1-(trifluoromethyl)cyclopropyl)methoxy)pyridin-3-yl)methanone] is 6.98.
The figure for `CC1(COc2ncc(C(=O)N3CCN(c4nc5nc(Cl)ccc5o4)CC3)cc2F)CC1` [Example 145, (4-(5-chlorooxazolo[4,5-b]pyridin-2-yl)piperazin-1-yl)(5-fluoro-6-((1-methylcyclopropyl)methoxy)pyridin-3-yl)methanone] is 6.67.
For `Cc1ccc2oc(N3CCN(C(=O)c4cnc(OCC5(C)CC5)c(Cl)c4)CC3)nc2n1` [Example 146, (5-chloro-6-((1-methylcyclopropyl)methoxy)pyridin-3-yl)(4-(5-methyloxazolo[4,5-b]pyridin-2-yl)piperazin-1-yl)methanone], the pIC50 was 6.87.
The figure for `Cc1ccc2oc(N3CCN(C(=O)c4cnc(OCC5(C(F)(F)F)CC5)c(Cl)c4)CC3)nc2n1` [Example 147, (5-chloro-6-((1-(trifluoromethyl)cyclopropyl)methoxy)pyridin-3-yl)(4-(5-methyloxazolo[4,5-b]pyridin-2-yl)piperazin-1-yl)methanone] is 6.89; for `Cc1ccc2oc(N3CCN(C(=O)c4cc(Cl)cc(N5CCS(=O)(=O)CC5)c4)CC3)nc2n1` [Example 175, [3-chloro-5-(1,1-dioxo-1,4-thiazinan-4-yl)phenyl]-[4-(5-methyl-[1,3]oxazolo[4,5-b]pyridin-2-yl)piperazin-1-yl]methanone] it is 5.82; for `CC(=O)N1CCN(c2cc(Cl)cc(C(=O)N3CCN(c4nc5nc(C)ccc5o4)CC3)c2)CC1` [Example 176, 1-[4-[3-chloro-5-[4-(5-methyl-[1,3]oxazolo[4,5-b]pyridin-2-yl)piperazine-1-carbonyl]phenyl]piperazin-1-yl]ethanone] it is 5.38.
Regarding `Cc1ccc2oc(N3CCN(C(=O)c4cc(Cl)cc(N5CCC(F)(F)CC5)c4)CC3)nc2n1` [Example 177, [3-chloro-5-(4,4-difluoropiperidin-1-yl)phenyl]-[4-(5-methyl-[1,3]oxazolo[4,5-b]pyridin-2-yl)piperazin-1-yl]methanone], the pIC50 was 5.50.
Take `Cc1ccc2oc(N3CCN(C(=O)c4cc(Cl)cc(N5CCC(CO)CC5)c4)CC3)nc2n1` [Example 178, [3-chloro-5-[4-(hydroxymethyl)piperidin-1-yl]phenyl]-[4-(5-methyl-[1,3]oxazolo[4,5-b]pyridin-2-yl)piperazin-1-yl]methanone]: the negative-log IC50 (pIC50) is 5.60.
As to `Cc1ccc2oc(N3CCN(C(=O)c4cc(Cl)cc(N5CC6(CC(O)C6)C5)c4)CC3)nc2n1` [Example 179, [3-chloro-5-(6-hydroxy-2-azaspiro[3.3]heptan-2-yl)phenyl]-[4-(5-methyl-[1,3]oxazolo[4,5-b]pyridin-2-yl)piperazin-1-yl]methanone], the pIC50 was 5.40.
Take `Cc1ccc2oc(N3CCN(C(=O)c4ccc(N5CC6(CCCC6)C5)c(-c5ncc[nH]5)c4)CC3)nc2n1` [Example 180, [4-(2-azaspiro[3.4]octan-2-yl)-3-(1H-imidazol-2-yl)phenyl]-[4-(5-methyl-[1,3]oxazolo[4,5-b]pyridin-2-yl)piperazin-1-yl]methanone]: the pIC50 was 6.09.
In the case of `Cc1ccc2oc(N3CCN(C(=O)c4cc(Cl)cc(-c5ccc(CO)cc5)c4)CC3)nc2n1` [Example 181, [3-chloro-5-[4-(hydroxymethyl)phenyl]phenyl]-[4-(5-methyl-[1,3]oxazolo[4,5-b]pyridin-2-yl)piperazin-1-yl]methanone], the pIC50 was 6.74.
As to `Cc1ccc2oc(N3CCN(C(=O)c4cc(OCCC(F)(F)F)cc(-c5ccc(CO)cc5)c4)CC3)nc2n1` [Example 182, [3-[4-(hydroxymethyl)phenyl]-5-(3,3,3-trifluoropropoxy)phenyl]-[4-(5-methyl-[1,3]oxazolo[4,5-b]pyridin-2-yl)piperazin-1-yl]methanone], the pIC50 is 6.42.
Regarding `Cc1ccc2oc(N3CCN(C(=O)c4ccc(OCC5(C(F)(F)F)CC5)c(-c5ccc(CO)cc5)c4)CC3)nc2n1` [Example 183, [3-[4-(hydroxymethyl)phenyl]-4-[[1-(trifluoromethyl)cyclopropyl]methoxy]phenyl]-[4-(5-methyl-[1,3]oxazolo[4,5-b]pyridin-2-yl)piperazin-1-yl]methanone], the pIC50 was 8.00.
As to `Cc1ccc2oc(N3CCN(C(=O)c4ccc(OCCC(F)(F)F)c(-c5ccc(CO)cc5)c4)CC3)nc2n1` [Example 184, [3-[4-(hydroxymethyl)phenyl]-4-(3,3,3-trifluoropropoxy)phenyl]-[4-(5-methyl-[1,3]oxazolo[4,5-b]pyridin-2-yl)piperazin-1-yl]methanone], the negative-log IC50 (pIC50) is 7.11.
On to `Cc1ccc2oc(N3CCN(C(=O)c4cc(OCC5(C(F)(F)F)CC5)cc(-c5ccc(CO)cc5)c4)CC3)nc2n1` [Example 185, [3-[4-(hydroxymethyl)phenyl]-5-[[1-(trifluoromethyl)cyclopropyl]methoxy]phenyl]-[4-(5-methyl-[1,3]oxazolo[4,5-b]pyridin-2-yl)piperazin-1-yl]methanone], for which the pIC50 is 6.52.
In the case of `Cc1ccc2oc(N3CCN(C(=O)c4ccc(-c5noc(CC(C)(C)C)n5)c(-c5ccc(CO)cc5)c4)CC3)nc2n1` [Example 186, [4-[5-(2,2-dimethylpropyl)-1,2,4-oxadiazol-3-yl]-3-[4-(hydroxymethyl)phenyl]phenyl]-[4-(5-methyl-[1,3]oxazolo[4,5-b]pyridin-2-yl)piperazin-1-yl]methanone], the pIC50 is 7.92.
In the case of `Cc1ccc2oc(N3CCN(C(=O)c4ccc(OCC5(C)CC5)c(-c5ccc(CO)cc5)c4)CC3)nc2n1` [Example 187, [3-[4-(hydroxymethyl)phenyl]-4-[(1-methylcyclopropyl)methoxy]phenyl]-[4-(5-methyl-[1,3]oxazolo[4,5-b]pyridin-2-yl)piperazin-1-yl]methanone], the pIC50 was 8.05.
As to `Cc1ccc2oc(N3CCN(C(=O)c4cc(OCC5(C)CC5)cc(-c5ccc(CO)cc5)c4)CC3)nc2n1` [Example 188, [3-[4-(hydroxymethyl)phenyl]-5-[(1-methylcyclopropyl)methoxy]phenyl]-[4-(5-methyl-[1,3]oxazolo[4,5-b]pyridin-2-yl)piperazin-1-yl]methanone], the negative-log IC50 (pIC50) is 6.78.
For `CC(C)(C)c1nc(-c2ccc(C(=O)N3CCN(c4nc5nc(C6CC6)ccc5o4)CC3)cc2)no1` [Example 189, (4-(5-(tert-butyl)-1,2,4-oxadiazol-3-yl)phenyl)(4-(5-cyclopropyloxazolo[4,5-b]pyridin-2-yl)piperazin-1-yl)methanone], the pIC50 was 5.60.
The figure for `O=C(c1ccc(N2CC3(CCCO3)C2)cc1)N1CCN(c2nc3ncccc3o2)CC1` [Example 192, (4-(5-oxa-2-azaspiro[3.4]octan-2-yl)phenyl)(4-(oxazolo[4,5-b]pyridin-2-yl)piperazin-1-yl)methanone] is 5.39.

The pIC50 is the negative decadic logarithm of the IC50, by convention in mol/L.
